In publication PMC6495113, “Sesquiterpenoids and 2-(2-phenylethyl)chromones respectively acting as α-glucosidase and tyrosinase inhibitors from agarwood of an Aquilaria plant” (Journal of Enzyme Inhibition and Medicinal Chemistry, 2019):

How the values were obtained:
α-glucosidase [1] = molecular target: T1, α-glucosidase (Saccharomyces cerevisiae, UniProt P53341); assay: α-Glucosidase inhibitory assay (p-NPG substrate); settings: for inhibition at 750 µM: read-out: α-glucosidase inhibitory activity 750 μM (%)
T1 sequence (P53341 whole entry): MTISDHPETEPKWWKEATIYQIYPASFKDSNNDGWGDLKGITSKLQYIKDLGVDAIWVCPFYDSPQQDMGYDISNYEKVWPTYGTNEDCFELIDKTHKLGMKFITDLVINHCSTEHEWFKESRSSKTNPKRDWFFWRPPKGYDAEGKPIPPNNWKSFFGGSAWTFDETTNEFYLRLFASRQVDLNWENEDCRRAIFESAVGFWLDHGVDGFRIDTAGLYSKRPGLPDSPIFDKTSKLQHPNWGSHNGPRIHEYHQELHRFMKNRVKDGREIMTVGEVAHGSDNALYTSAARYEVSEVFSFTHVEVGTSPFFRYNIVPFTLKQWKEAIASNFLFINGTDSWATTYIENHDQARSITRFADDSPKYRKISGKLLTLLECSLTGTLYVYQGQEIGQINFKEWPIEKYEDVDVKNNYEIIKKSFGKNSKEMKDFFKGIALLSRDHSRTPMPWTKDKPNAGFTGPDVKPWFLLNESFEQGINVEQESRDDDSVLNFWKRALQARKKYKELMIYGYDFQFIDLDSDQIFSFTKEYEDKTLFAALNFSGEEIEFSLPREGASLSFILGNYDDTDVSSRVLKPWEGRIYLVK
Method: The α-glucosidase (G5003, Sigma-Aldrich) was obtained from Saccharomyces cerevisiae and the enzyme inhibitory assay was performed using formerly described method[24] with some modifications. […] The percentage inhibition was calculated using the following equation: % inhibition=[1–(ODcompound–ODblank)/(ODcontrol–ODblank)]×100

tyrosinase [2] = molecular target: T2, tyrosinase (Agaricus bisporus, UniProt C7FF04); assay: Tyrosinase inhibitory assay (L-tyrosine substrate); settings: read-out: tyrosinase inhibitory activity 100 μM (%)
T2 sequence (C7FF04 1-392): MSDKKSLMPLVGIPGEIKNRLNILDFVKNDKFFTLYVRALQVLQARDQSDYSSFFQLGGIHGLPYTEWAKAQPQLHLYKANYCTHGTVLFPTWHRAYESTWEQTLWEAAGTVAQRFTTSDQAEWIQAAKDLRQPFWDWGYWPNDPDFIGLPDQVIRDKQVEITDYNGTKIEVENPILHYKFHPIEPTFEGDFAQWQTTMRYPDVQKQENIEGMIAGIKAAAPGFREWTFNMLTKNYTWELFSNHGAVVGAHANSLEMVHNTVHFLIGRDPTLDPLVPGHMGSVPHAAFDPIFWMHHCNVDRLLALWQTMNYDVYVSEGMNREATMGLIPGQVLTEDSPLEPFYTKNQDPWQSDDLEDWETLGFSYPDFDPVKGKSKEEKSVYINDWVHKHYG
Method: After 5 min pre-incubation of the mixture at 37 °C, 50 µL of 2 mM L-tyrosine in buffer were added and incubated for additional 20 min at 37 °C. The control wells contained DMSO instead of compound, and the blank wells were added with buffer in place of L-tyrosine. […] The percentage inhibition was calculated using the formula as below: % inhibition=[1–(ODcompound–ODblank)/(ODcontrol–ODblank)]×100

α-glucosidase [3] = molecular target: T1, α-glucosidase; assay: Kinetic analysis of α-glucosidase inhibition (Lineweaver-Burk, secondary plot); format: biochemical
Method: The α-glucosidase (G5003, Sigma-Aldrich) was obtained from Saccharomyces cerevisiae and the enzyme inhibitory assay was performed using formerly described method[24] with some modifications. […]. The OD values were measured at 405 nm with microplate reader. Acarbose was used as reference compound. The percentage inhibition was calculated using the following equation: % inhibition=[1–(ODcompound–ODblank)/(ODcontrol–ODblank)]×100
(§1) The data were expressed as double-reciprocal Lineweaver − Burk plot and the inhibition constants (KI and KIS) were obtained from secondary plots of slope and y intercept of lines from Lineweaver-Burk plot against inhibitor[25].

tyrosinase [4] = molecular target: T2, tyrosinase; assay: Kinetic analysis of tyrosinase inhibition (Lineweaver-Burk, secondary re-plots); format: biochemical, mushroom
Method: . Briefly, 130 µL of tyrosinase (50 U/mL) solvated in 50 mM phosphate buffer (pH: 6.8) were mixed with 20 µL of 2-fold serial dilutions (from 1 mM to 0.03125 mM) of compounds in DMSO, and transferred into a 96-well plate. After 5 min pre-incubation of the mixture at 37 °C, 50 µL of 2 mM L-tyrosine in buffer were added and incubated for additional 20 min at 37 °C. The control wells contained DMSO instead of compound, and the blank wells were added with buffer in place of L-tyrosine. Kojic acid was used as a positive control. The absorbance was measured at 495 nm using microplate reader. The percentage inhibition was calculated using the formula as below: % inhibition=[1–(ODcompound–ODblank)/(ODcontrol–ODblank)]×100
as §1

| SMILES | inhibition at 750 µM (α-glucosidase [1]) | inhibition at 100 µM (tyrosinase [2]) | other results |
| --- | --- | --- | --- |
| CC1CCC2C13CCC(C3O)C(C)(O)C2(C)C (centres unmarked) [Compound 3, Agarozizanol C] | < 30% | < 30% |  |
| CC1CCC2C13CCC(C3)C(O)(CO)C2(C)C (centres unmarked) [Compound 4, Agarozizanol D] | 49.9 ± 1.8% | < 30% |  |
| CC1=C2CCC(C)C23CCC(C3)C1(C)CO (centres unmarked) [Compound 5, Agarozizanol E] | 93.4 ± 3.1% | < 30% | type of inhibition of α-glucosidase (α-glucosidase [3]): uncompetitive inhibitors |
| CC1=C2C(O)CC(CO)C23CCC(C3)C1(C)C (centres unmarked) [Compound 6, Agarozizanol F] | < 30% | < 30% |  |
| CC1CCC2C(C)(C)C(CO)C3CCC12C3 (centres unmarked) [Compound 8, Jinkohol II] | 77.3 ± 1% | < 30% |  |
| CC1CCC2C(C)(C)C(C(=O)O)C3CCC12C3 (centres unmarked) [Compound 9, Jinkoholic acid] | 48.9 ± 1.1% | < 30% |  |
| COc1ccc(CCc2cc(=O)c3cc(O)cc(O)c3o2)cc1 [Compound 14, 6,8-dihydroxy-2-[2-(4-methoxyphenyl)ethyl]chromone] | < 30% | 65 ± 1.8% | type of inhibition of tyrosinase (tyrosinase [4]; Lineweaver-Burk plot): mixed type inhibitors; inhibition constant KIS, binding with enzyme-substrate complex (tyrosinase) (tyrosinase [4]; secondary re-plot of y intercept vs. inhibitor): 72.8 µM |
| O=c1cc(CCc2ccccc2)oc2c1C(O)C(O)C(O)C2Cl (centres unmarked) [Compound 15, 8-chloro-2–(2-phenylethyl)-5,6,7-trihydroxy-5,6,7,8-tetrahydrochromone] | < 30% | 34.8 ± 1.4% |  |
| COc1ccc(CCc2cc(=O)c3c(o2)C(Cl)C(O)C(O)C3O)cc1 (centres unmarked) [Compound 16, 8-chloro-2–(2-(4-methoxyphenyl)ethyl)-5,6,7-trihydroxy-5,6,7,8-tetrahydrochromone] | < 30% | < 30% |  |
| C[C@H]1O[C@H](O[C@H]2[C@H](O)[C@@H](O)[C@@H](O[C@H]3[C@H](O)[C@@H](O)C(O)O[C@@H]3CO)O[C@@H]2CO)[C@H](O)[C@@H](O)[C@@H]1N[C@H]1C=C(CO)[C@@H](O)[C@H](O)[C@H]1O (some centres unmarked) [acarbose, reference compound] |  |  | α-glucosidase inhibitory activity 750 μM (%) (α-glucosidase [1]; 750 μM, means ± SD, three individual experiments): 50.7 ± 1.2%; α-glucosidase inhibition rate (α-glucosidase [1]; concentration of 50 µg/mL): 62.06 ± 4.77% |

Further lines, with some results ahead:

| inhibition at 750 µM (α-glucosidase [1]) | inhibition at 100 µM (tyrosinase [2]) | SMILES | other results |
| --- | --- | --- | --- |
| 37.4 ± 1.4% | < 30% | C=C1C2CCC3(C(CO)CCC3C1(C)C)C2O (centres unmarked) [Compound 1, Agarozizanol A] |  |
| 42 ± 2.7% | < 30% | CC1CCC2C(C)(C)C(CO)C3(O)CCC12C3 (centres unmarked) [Compound 2, Agarozizanol B] |  |
| 86.9 ± 0.4% | < 30% | CC1CCC2C13CCC(C3)C(C)(O)C2(C)C (centres unmarked) [Compound 7, Jinkohol I] |  |
| 92.1 ± 3.4% | < 30% | CC1=C2CCC(CO)C23CCC(C3)C1(C)C (centres unmarked) [Compound 10, isokhusenol] |  |
| < 30% | < 30% | COc1ccc(CCc2cc(=O)c3cc(OC)c(O)cc3o2)cc1O [Compound 12, 6-methoxy-7-hydroxy-2-[2-(3-hydroxy-4-methoxyphenyl)ethyl]chromone] |  |
| < 30% | 53.4 ± 0.7% | COc1ccc(CCc2cc(=O)c3cc(O)c(OC)cc3o2)cc1O [Compound 13, 6-hydroxy-7-methoxy-2-[2-(3-hydroxy-4-methoxyphenyl)ethyl]chromone] |  |
